According to patent publication US20050148073A1, “Induction of hepatocyte proliferation in vitro by inhibition of cell cycle inhibitors” (priority 2002, published 2005):
Blank lines part the entries; values can stand above or below the compound they belong to.

How the values were obtained:
primary rat hepatocytes [1] = assay: Hepatocyte morphology / cell spreading (scanning electron micrographs); type: cell-based; details: 24 hours
Excerpt: PKA inhibition also had surprising effects on cell morphology. It has been proposed that malleable substrates such as collagen gel are unable to promote cell spreading because it lacks sufficient mechanical strength to resist contractile forces applied by the cell to its adhesion sites.

hepatocytes [2] = assay: Dot blot of albumin secretion, 72 hour media samples; type: cell-based, rat
Protocol: FIG. 6. Dot blot of albumin secretion—72 hour media samples.
The observed enhanced cell number was accompanied by NO change in albumin secretion, which is a standard measure of differentiated function. […] It also compares it to a thin film of type I collagen on which hepatocytes may proliferate but also lose differentiated function. Inhibition of PKA has little effect on DNA synthesis, cell counts, or albumin secretion in hepatocytes cultured on film.

primary rat hepatocytes [3] = assay: DNA synthesis, [3H]thymidine incorporation in hepatocytes on collagen film or gel; type: cell-based
Protocol: (§1) FIG. 2. Effects of PKA inhibition on morphology and cell cycle progression on collagen gel. (A) PKA activity was assessed in hepatocytes cultured on gel or film. In vitro kinase assay was performed; DPM=total ^32P-incorporation, minus counts from sample without substrate. […] [^3H]Thymidine incorporation was assessed from 48-96 hr. (C) Phosphorylation of p42/44 ERKs was determined in hepatocytes cultured on collagen gel for 50 hr by Western blot using a phospho-specific p42/44 antibody (NEB). […] EGF receptor (EGFr) was immunoprecipitated, followed by Western blot analysis of phospho-tyrosine (P-Tyr) or total EGFr.
Once it was confirmed that PKA activity was higher in cells cultured on gel, PKA activity was modified to assess its role in cell cycle progression.
DNA Synthesis: DNA synthesis will be measured using [^3H]-thymidine incorporation in substrate-coated 96-well plates, as previously described (Hansen 1999). DPMs will be normalized to cell number assessed in parallel plates using the CyQuant Assay (Molecular Probes).
Hepatocyte Culture: Cells are obtained by collagenase perfusion of adult Lewis rat liver (Aiken 1990), followed by purification through a Percoll gradient (Sigma, St. Louis, Mo.). Hepatocytes will be plated (12,000 cells/cm^2) in serum-free William's medium E with defined additives including EGF (10 ng/ml, Collaborative Research, Bedford, Mass.) and insulin (20 mU/ml, Sigma) (Hansen 1994).

p42/44 ERKs = assay: Phosphorylation of p42/44 ERKs by Western blot; type: cell-based, rat; details: hepatocytes on collagen gel for 50 hr, with H89
Protocol: as §1
To determine if ERK activation occurs on both collagen substrates (film and gel), phosphorylation of ERKs was measured using Western blot analysis and antibodies against the phosphorylated form of ERK 1/2 (New England Biolabs). […] Once plated onto collagen film, ERK phosphorylation persisted and increased slightly over the first 2 hours in culture, then gradually diminished out to 24 hours. A second peak of phosphorylation was observed by 48 hours, just prior to entry into S phase. Both peaks of phosphorylation correlated with increased ERK kinase activity as determined by in vitro kinase assays. In contrast, the initial phosphorylation subsides more rapidly in cells on collagen gel and the second peak of ERK phosphorylation was absent. […]

hepatocytes [4] = assay: Cell counts after pulsed PKA inhibition, Example 6 (hemocytometer, Coulter counter); type: cell-based, rat
Protocol: Coating: 60 mm plates were coated with film or 5× gel, as described above, with 4 replicates per condition. […] Culture: The cells were cultured as described above, changing media in all plates at 72 hrs, and again at 96 hrs (day 4). […] Harvest: Gel—media was removed from plates. Five mL collagenase (approx. 1 mg/ml) in PBS was added to plates and incubated for 20 minutes at 37° C. Three mL trypsin-EDTA was added directly to collagenase solution and incubated another 15 minutes at 37° C. Media was removed with a pipette and plate was washed several times with the media, before the media was collected into a 15 mL tube. Tubes were centrifuged at 1000 rpm for 10 minutes at 4° C. Supernatant was removed and pellets from each of the four replicates were resuspended in 1 mL fresh media. Tube was weighed for end volume and equalized to 1 ml later. Film—Media was removed from plates. Trypsin-EDTA was added to dishes (3 ml/dish) and dishes were incubated at 37° C. for 15 minutes. Procedure was repeated. Samples were snap frozen in ethanol at −70° C. before thawing and counting. Counting: Hemocytometer—100 μL sample was added to 900 μL trypan blue in PBS […]. Cells were counted. Repeated procedure seven times for eight total counts per sample. Coulter Counter—Added 250 μL sample to 20 mL PBS in small Coulter vessel. Counted with predetermined pre-sets, collecting 1 mL of 20 mL sample and recording result. Repeated procedure seven times for eight total counts per sample. It should be noted that the inventors also determined that a pulse of PKA inhibitor is preferable to a constant exposure to PKA. If the PKA inhibitor is left on for the entire culture period, there is no enhanced cell number, presumably due to the requirement of PKA in later stages of the cell cycle. Thus, the methodology differs slightly from our initial report in which we simply stated the inhibitor is added to the culture. In the present experiments, the inventors exposed the cells to the inhibitor on for the first 72 hours, removed it for the next 24 hours, and then added it back again.

primary rat hepatocytes [5] = assay: Albumin secretion by ELISA (differentiated function); type: cell-based; details: collagen gel; text: after 48 hours in culture; H89 3 μM
Protocol: FIG. 4. Effects of PKA inhibition on hepatocyte proliferation and differentiation. […] Albumin secretion was determined by ELISA.
(§2) Albumin is a protein synthesized and secreted by hepatocytes and this assay is routinely used as a marker of differentiated function. […] Urea production is also maintained on collagen gel in the presence of PKA inhibition (FIG. 4C).

primary rat hepatocytes [6] = assay: Urea production in hepatocytes on collagen gel; type: cell-based; details: with PKA inhibition (FIG. 4C: with or without H89)
Protocol: (§3) FIG. 4. Effects of PKA inhibition on hepatocyte proliferation and differentiation. […] Medium was replaced at 96 hr and collected for analysis at 120 hr. Albumin secretion was determined by ELISA.
as §2

primary rat hepatocytes [7] = assay: Cell counting 96 hr after plating on collagen gel (hemocytometer); type: cell-based; details: H89 3 μM
Protocol: as §3
While growth on collagen films was also high, hepatocytes quickly become de-differentiated on collagen films.
Proliferation: Hepatocytes cultured on 35 mm dishes will be removed from plates using a combination of trypsin, collagenase, and DNAse at various times after plating. Cells are counted using a Coulter counter and hemocytometer. A cell count at 24 hour is also determined to assess the initial number of viable, attached cells. Plates are run in triplicate.

[8] = system: protein kinase inhibitory peptide, PKI

Compound: Nc1ncnc2c1nc(Br)n2[C@@H]1O[C@@H]2COP(=O)(O)O[C@H]2[C@H]1O [8-Br-cAMP]
cell spreading on collagen film (primary rat hepatocytes [1]; collagen film): significantly inhibits cell spreading

albumin secretion in hepatocytes cultured on film (hepatocytes [2]; collagen film): little effect
DNA synthesis in hepatocytes cultured on film (primary rat hepatocytes [3]; collagen film, Example 6 discussion): little effect
cell counts in hepatocytes cultured on film (hepatocytes [4]; collagen film): little effect
Compound: O=S(=O)(NCCNC/C=C/c1ccc(Br)cc1)c1cccc2cnccc12 [H89, N-[2-((p-bromocinnamyl)amino)ethyl]-5-isoquinolinesulfonamide]
albumin secretion (dot blot, not quantitated) (hepatocytes [2]; collagen gel cultures with or without H89, 72 hours): NO change
DNA synthesis on collagen gel (primary rat hepatocytes [3]; H89 2 μM vs DMSO, collagen gel, [3H]thymidine incorporation 48-96 hr): significantly increased
DNA synthesis on collagen film (primary rat hepatocytes [3]; H89 2 μM vs DMSO, film-plated cells, 48-96 hr): little effect
ERK phosphorylation (p42/44 ERKs): significantly enhanced
higher cell number with PKA inhibition (hepatocytes [4]; type I collagen gel, eight days in culture, 3.3 μM H89 pulsed): 15-20%
average increase in cell number, five experiments (hepatocytes [4]; type I collagen gel, eight days, 3.3 μM H89 pulsed, p-value=0.0004): 16%±3.3%
cell number at four days (hepatocytes [4]; type I collagen gel, representative experiment (FIG. 5A)): no change in cell number
albumin secretion compared to DMSO controls (primary rat hepatocytes [5]): not reduced
cell spreading on collagen gel (primary rat hepatocytes [1]; collagen gel): significant spreading
urea production (primary rat hepatocytes [6]): maintained
increase in cell number compared to DMSO controls (primary rat hepatocytes [7]): 67%

Compound: N#CC(=C(/N)Sc1ccccc1N)/C(C#N)=C(\N)Sc1ccccc1N [U0126]
DNA synthesis, MEK1 inhibition during early G1 (primary rat hepatocytes [3]; inhibitor applied during early G1): does not
DNA synthesis, MEK1 inhibition during late G1 (primary rat hepatocytes [3]; inhibitor applied during late G1): inhibits DNA synthesis

Compound: protein kinase A (PKA)
[^32P] incorporation in the in vitro PKA kinase assay [8]: the protein kinase inhibitory peptide, PKI, specifically inhibits [^32P] incorporation
